Data published in patent publication US20210139540A1, “MULTIVALENT LIGAND-LIPID CONSTRUCTS” (priority 2014, published 2021).

Tested on: kodecytes
Assay: Complement induced cell lysis of kodecytes in pooled AB serum
Assay type: cell-based
Conditions: for Abs 1: duplicate 1; for Abs 2: duplicate 2; for (A1 and A2): from duplicates; for Sensitivity of kodecytes to lysis compared with kodecytes prepared using construct 49: complement mediated autolysis; for Calculated %: percentage of cells lysed using standard curve; for Measured %: percentage of cells lysed, construct 49 set as 100; for Degree of lysis: qualitative
Experimental: Preparation of kodecytes Stock solutions of constructs (35, 47, 48 and 49) were prepared at a concentration of 1 mg/mL in a red blood cell (RBC) preservative solution (CELPRESOL™, CSL Limited). Prior to dilution each stock solution was vortexed for 45 seconds at room temperature (r.t.). A volume of 100 μL of diluted stock solution was added to a volume of 100 μL centrifugally packed RBCs (packed cell volume; PCV). The total volume of 200 μL suspended RBCs was incubated at 37° C. for 2 hours before washing with CELPRESOL™ and re-suspending the modified RBCs (“kodecytes”) at a concentration of 5% PCV in CELPRESOL™.
Prior to use kodecytes were washed and re-suspended 5% PCV in phosphate buffered saline (PBS). Uniformity of concentration of RBCs was confirmed by adding a volume of 40 μL of kodecyte suspension to a volume of 1 mL of Drabkins solution and the absorbance measured at 540 nm against Drabkins solution (blank). Variations in measured absorbances was reduced to less than 10% by adjustment of suspending volume.
The ability of constructs to induce complement mediated autolysis was evaluated by a method analogous to that described in the publication of Henry and Komarraju (2012). For the present studies kodecytes prepared using construct 49 were used as a 100% lysis control. A volume of 200 μL pooled AB serum and a volume of 100 μL kodecytes prepared using construct 49 at a concentration of 750 μg/mL was used as the 100% lysis control. A volume of 200 μL pooled AB serum and a volume of 100 μL O group RBCs (prepared as kodecytes without the addition of construct) was used as the 0% lysis control. To measure the ability of constructs to induce complement mediated autolysis of kodecytes volumes of 200 μL of pooled AB serum were dispensed into duplicate sets of test tubes. A volumes of 100 μL kodecytes was added to the tubes before incubation at 37° C. for 1 hour. Following incubation a volume of 1 μL ethylenediaminetetraacetic acid (EDTA) as its dipotassium salt
was added to each to each test tube to provide a final concentration of 0.1 mM EDTA. The test tubes were then centrifuged and the characteristics of the sedimented RBCs and supernatant observed (Table 2 and FIG. 2). In addition a volume of 160 μL of the cell free supernatant was removed and added to a volume of 1 mL of Drabkins solution. The absorbance of the solution was then measured at 540 nm against a volume of 160 μL pooled AB serum added to a volume of 1 mL of Drabkins solution (blank). The absorbance of the supernatant was calculated as a percentage of the initial absorbance of the suspension of kodecytes. The percentage of cells lysed was calculated against a standard curve.

[1] = absorbance 540 nm of supernatant, concentration not given
[2] = absorbance 540 nm, concentration not given
[3] = pooled AB serum, 37° C., 1 hour, construct concentration not given
[4] = absorbance 540 nm, 100% lysis control (construct 49 at 750 μg/mL)

Compound | Abs 1 [1] | Abs 2 [1] | (A1 and A2) [2] | Sensitivity of kodecytes to lysis compared with kodecytes prepared using construct 49 (pooled AB serum) | Calculated % (concentration not given) [%] | Measured % (concentration not given) | Degree of lysis [3] | Abs 1 [4] | Abs 2 [4] | (A1 and A2) [4] | Calculated % (100% lysis control (construct 49 at 750 μg/mL)) [%] | Degree of lysis (100% lysis control: kodecytes prepared using construct 49 at 750 μg/mL)
CCCCCCCC/C=C\CCCCCCCC(=O)OCC(COP(=O)(O)OCCNC(=O)CCCCC(=O)NCCCO[C@@H]1OC(CO)[C@@H](O[C@@H]2OC(CO)[C@H](O)C(O[C@H]3OC(CO)[C@H](O)C(O)C3NC(C)=O)C2O)C(O)C1NC(C)=O)OC(=O)CCCCCCC/C=C\CCCCCCCC (stereo partly shown) [construct 48, GalNAcα1-3Galβ1-4GlcNAc-Ad-DOPE] | .349 | .345 | .347 | approximately twice as sensitive | 95 | 190% | Complete | – | – | – | – | –
Galili-CMG2-Ad-DOPE [construct 47] | .224 | .243 | .234 | somewhat more sensitive | 65 | 128% | Partial | – | – | – | – | –
Galα1-3Galβ1-4GlcNAc-Ad-DOPE [construct 49] | .178 | .187 | .183 | – | 51 | Set as 100% | Partial | .303 | .310 | .307 | 85 | Complete
